A word on the IC50: it is the concentration that inhibits the measured activity by half. The term CC50 denotes the concentration giving 50% cytotoxicity. The AC50 is the concentration giving half of the maximal activity seen. What is called EC50 is the concentration at which the effect is half-maximal.

Here are results for 32 compounds from ChEMBL document CHEMBL1201862, “PubChem BioAssay data set” (2004).

Activity calls are given as the source filed them.

For one experiment, the target named is T1, Protein skinhead-1 (Caenorhabditis elegans, UniProt P34707).
T1 sequence (P34707 whole entry): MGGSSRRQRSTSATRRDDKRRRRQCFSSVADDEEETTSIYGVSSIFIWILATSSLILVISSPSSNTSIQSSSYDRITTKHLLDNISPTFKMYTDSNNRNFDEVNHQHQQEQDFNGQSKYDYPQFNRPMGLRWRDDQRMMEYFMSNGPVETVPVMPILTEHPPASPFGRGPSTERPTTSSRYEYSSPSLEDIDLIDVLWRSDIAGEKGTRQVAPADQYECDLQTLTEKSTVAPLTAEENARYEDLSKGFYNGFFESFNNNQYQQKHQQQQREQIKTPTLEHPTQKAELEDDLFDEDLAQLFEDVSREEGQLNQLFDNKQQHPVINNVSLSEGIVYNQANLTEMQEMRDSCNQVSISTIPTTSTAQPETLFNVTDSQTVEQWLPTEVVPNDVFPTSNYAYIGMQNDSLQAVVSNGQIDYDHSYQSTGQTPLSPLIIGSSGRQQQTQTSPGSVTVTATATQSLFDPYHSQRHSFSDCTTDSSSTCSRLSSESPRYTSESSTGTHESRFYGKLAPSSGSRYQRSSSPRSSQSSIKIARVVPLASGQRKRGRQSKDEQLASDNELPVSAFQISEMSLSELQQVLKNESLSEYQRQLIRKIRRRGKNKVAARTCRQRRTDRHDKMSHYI
The format is functional.

Experiment [1] in a line: HEp-2 cell cytotoxicity, dose response, cytotoxicity control for RSV inhibitor project, HTS (AID 2410). Format: functional. The settings on record: human respiratory syncytial virus.
Experiment [2] addresses T2, Replicative DNA helicase DnaB (Mycobacterium tuberculosis, UniProt P9WMR3).
T2 sequence (P9WMR3 whole entry): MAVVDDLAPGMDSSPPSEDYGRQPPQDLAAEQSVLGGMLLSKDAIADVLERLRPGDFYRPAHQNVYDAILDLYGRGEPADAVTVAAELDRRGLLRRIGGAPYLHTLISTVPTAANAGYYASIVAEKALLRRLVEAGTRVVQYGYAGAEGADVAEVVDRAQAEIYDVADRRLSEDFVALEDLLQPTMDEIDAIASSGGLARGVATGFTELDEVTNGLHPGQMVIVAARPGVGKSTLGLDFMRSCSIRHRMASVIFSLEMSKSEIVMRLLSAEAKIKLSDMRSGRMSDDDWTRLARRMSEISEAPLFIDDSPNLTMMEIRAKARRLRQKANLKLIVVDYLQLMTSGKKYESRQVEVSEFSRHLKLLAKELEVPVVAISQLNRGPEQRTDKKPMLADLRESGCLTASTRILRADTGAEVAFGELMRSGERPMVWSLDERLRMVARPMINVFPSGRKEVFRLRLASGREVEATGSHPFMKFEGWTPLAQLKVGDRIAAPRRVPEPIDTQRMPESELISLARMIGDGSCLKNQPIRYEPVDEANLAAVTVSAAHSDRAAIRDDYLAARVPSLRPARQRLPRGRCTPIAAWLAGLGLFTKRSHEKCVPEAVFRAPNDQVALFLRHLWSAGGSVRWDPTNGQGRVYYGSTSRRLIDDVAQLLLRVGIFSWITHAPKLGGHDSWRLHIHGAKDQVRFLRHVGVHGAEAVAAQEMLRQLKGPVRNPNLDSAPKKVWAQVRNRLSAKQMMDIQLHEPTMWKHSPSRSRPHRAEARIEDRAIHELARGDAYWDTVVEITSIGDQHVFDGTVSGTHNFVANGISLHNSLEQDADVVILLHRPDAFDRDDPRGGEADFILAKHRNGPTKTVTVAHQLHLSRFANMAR
Kind of experiment: DnaB intein splicing inhibitors, dose response, biochemical, cell-free fluorescence (AID 449749). Format: functional.

The target in another experiment is T3, Protein RecA (Mycobacterium tuberculosis, UniProt P9WHJ3).
T3 sequence (P9WHJ3 whole entry): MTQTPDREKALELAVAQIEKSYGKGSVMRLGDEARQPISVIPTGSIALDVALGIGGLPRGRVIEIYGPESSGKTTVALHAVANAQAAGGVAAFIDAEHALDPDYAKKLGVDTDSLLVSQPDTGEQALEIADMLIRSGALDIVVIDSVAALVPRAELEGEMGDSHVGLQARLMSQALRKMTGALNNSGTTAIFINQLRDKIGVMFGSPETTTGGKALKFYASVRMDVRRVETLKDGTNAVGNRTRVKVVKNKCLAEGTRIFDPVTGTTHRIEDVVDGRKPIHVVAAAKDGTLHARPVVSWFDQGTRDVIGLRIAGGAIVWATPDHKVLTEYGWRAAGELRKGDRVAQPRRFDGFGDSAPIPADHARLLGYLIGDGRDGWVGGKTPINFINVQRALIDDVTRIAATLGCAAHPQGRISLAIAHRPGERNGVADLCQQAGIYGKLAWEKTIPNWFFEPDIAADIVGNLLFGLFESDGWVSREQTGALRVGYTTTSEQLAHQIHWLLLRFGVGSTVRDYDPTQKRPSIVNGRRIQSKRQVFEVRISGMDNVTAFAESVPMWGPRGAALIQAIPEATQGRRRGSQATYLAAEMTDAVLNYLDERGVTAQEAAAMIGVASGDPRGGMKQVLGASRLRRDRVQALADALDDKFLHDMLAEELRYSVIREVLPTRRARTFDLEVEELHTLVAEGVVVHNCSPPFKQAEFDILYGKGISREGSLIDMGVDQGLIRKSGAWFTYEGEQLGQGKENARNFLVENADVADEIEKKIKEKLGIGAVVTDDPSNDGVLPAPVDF
Kind of experiment: Fluorescence Cell-Free Homogeneous Dose Retest to Identify Inhibitors of RecA-Intein Splicing Activity. [Related pubchem assays (depositor defined):AID2097, AID2223, AID489010, AID492950]. Format: functional.

The next experiment concerns the target Cytochrome P450 2D6 (Homo sapiens, UniProt P10635).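 Note: CYP2D6 member of a cytochrome P450 panel assay.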
A further experiment has as its target T4, Cytochrome P450 1A2 (Homo sapiens, UniProt P05177).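 Note: PubChem cytochrome P450 panel assay, CYP1A2 panel member.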
T4 sequence (P05177 whole entry): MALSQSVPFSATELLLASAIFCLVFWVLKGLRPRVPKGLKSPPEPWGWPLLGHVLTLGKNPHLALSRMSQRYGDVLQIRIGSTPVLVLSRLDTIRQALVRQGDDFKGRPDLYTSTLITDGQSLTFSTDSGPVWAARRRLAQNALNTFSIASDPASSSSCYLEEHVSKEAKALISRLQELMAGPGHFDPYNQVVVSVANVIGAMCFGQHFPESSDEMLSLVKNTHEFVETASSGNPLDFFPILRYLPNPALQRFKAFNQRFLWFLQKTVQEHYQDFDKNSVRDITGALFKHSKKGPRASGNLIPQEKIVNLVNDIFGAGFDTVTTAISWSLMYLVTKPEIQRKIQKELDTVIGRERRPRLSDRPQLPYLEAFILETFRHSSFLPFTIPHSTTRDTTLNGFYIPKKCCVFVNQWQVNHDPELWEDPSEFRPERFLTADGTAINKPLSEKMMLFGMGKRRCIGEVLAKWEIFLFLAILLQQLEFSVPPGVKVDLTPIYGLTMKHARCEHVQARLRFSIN

Experiment [3] relates to Streptococcus sp. 'group A'. Kind of experiment: growth inhibition of control SK(-) GAS strain, dose response, counter-screen for streptokinase expression inhibitor project, luminescence, kanamycin, BacTiterGlo, confirmation (AID 1900). Format: functional, organism-based.
Another experiment deals with T5, Streptokinase A (Streptococcus pyogenes serotype M1, UniProt P10520).
T5 sequence (P10520 whole entry): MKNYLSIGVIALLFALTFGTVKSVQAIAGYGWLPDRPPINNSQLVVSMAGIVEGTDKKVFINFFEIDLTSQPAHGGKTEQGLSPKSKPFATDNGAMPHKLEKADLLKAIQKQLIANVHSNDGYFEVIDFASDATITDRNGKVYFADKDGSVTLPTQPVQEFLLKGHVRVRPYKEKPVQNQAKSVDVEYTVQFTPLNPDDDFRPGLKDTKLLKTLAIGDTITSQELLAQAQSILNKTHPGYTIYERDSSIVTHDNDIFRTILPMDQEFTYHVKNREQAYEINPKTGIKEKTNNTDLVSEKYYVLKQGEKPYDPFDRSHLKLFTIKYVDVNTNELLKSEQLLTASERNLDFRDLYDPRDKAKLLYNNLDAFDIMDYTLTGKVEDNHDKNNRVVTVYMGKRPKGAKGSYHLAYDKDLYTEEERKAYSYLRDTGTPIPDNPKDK
The experiment is described as follows: S. pyogenes streptokinase expression inhibitors, potency, dose response, plasminogen activation absorbance, OD405 (AID 1914).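 Note: secreted streptokinase activity via plasminogen activation per viability signal from cell pellet.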 The format is functional, Streptococcus pyogenes M1 GAS.

The test system of a further experiment is Streptococcus. Kind of experiment: Group A Streptococcus viability loss, dose response, counter-screen for streptokinase expression inhibitor project, luminescence, BacTiterGlo (AID 1915).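 Note: potency for reduction of bacterial viability or growth.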 Format: functional, organism-based.

Chain of Cytochrome P450 2D6 (P10635 whole entry): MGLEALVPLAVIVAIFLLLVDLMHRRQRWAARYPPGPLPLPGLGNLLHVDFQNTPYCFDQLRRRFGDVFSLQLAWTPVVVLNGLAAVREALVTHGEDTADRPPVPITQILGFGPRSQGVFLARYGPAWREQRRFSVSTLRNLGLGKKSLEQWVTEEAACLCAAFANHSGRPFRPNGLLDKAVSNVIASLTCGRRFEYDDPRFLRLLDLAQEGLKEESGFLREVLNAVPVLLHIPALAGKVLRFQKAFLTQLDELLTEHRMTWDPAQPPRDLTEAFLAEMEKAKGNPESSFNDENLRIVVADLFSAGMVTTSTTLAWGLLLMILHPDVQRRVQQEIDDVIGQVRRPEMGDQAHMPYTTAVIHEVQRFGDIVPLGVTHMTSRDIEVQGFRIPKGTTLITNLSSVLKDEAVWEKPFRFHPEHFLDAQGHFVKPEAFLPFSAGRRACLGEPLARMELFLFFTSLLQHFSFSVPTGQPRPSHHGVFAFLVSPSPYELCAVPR

With `O=c1c2ccccc2oc2ccc(Oc3ccccc3)cc12`, on Protein skinhead-1, the IC50 was 22.5 µM (active).
Still for that read-out and setting: for `CCCCOc1ccc(C(=O)NC)cc1` the value was > 100 µM (inactive).
Turning to `COc1ccccc1N(Cc1ccccc1)S(=O)(=O)c1cccc(C(=O)Nc2ccccn2)c1`, the CC50 in experiment [1] is 11.6 µM (active).
Consider `COc1ccc(C2=NN(c3nc(C)cc(C)n3)C(=O)C2)cc1`, for which the AC50 in experiment [2] was 4.53 µM (active). Further, at Protein RecA, the EC50 was 2.81 µM (active).
On to `COc1cccc(NC(=O)Nc2nnc(N3C(C)CCCC3C)s2)c1` (centres undefined), for which the CC50 in experiment [1] was > 50 µM (active).
Turning to `CON(c1nc(N(C)C)nc(N(C)C)n1)S(=O)(=O)c1ccccc1Cl`, the AC50 at Cytochrome P450 2D6 is 25.1 µM (inconclusive); at Cytochrome P450 1A2 it was 14.1 µM (inconclusive).
Turning to `COCCn1cnnc1SCC(=O)Nc1cccc(S(=O)(=O)N2CCCCC2)c1`, the IC50 on Protein skinhead-1 is > 100 µM (inactive).
As for `O=[N+]([O-])c1cccc(-c2c(-c3ccccc3)ncc3cc(F)ccc23)c1`, the IC50 on Protein skinhead-1 is 88.7 µM (inactive).
Still for that read-out and setting: for `N#CC1(Nc2ccc(-c3ccc(Cl)cc3)cc2)CCCC1` the value was 26.1 µM (active); for `COc1ccc(Br)cc1CN(C)CC(O)COc1ccc(Br)cc1` (centres undefined), > 100 µM (inactive).
As to `COc1ccc2ccc3c(c2c1)N=C[C@]1(O3)N(C)c2ccccc2C1(C)C`, the EC50 is 35.4 µM (active) in experiment [3], 3.17 µM (active) on Streptokinase A, > 150 µM (not active) in the experiment with Streptococcus and 3.66 µM (active) at Protein RecA. Besides, the AC50 in experiment [2] was > 380 µM (inactive).
For `CCOc1ccc2cc(/C=C/C(=O)c3ccco3)c(Cl)nc2c1`, the CC50 in experiment [1] is 47.7 µM (active).
In the case of `Clc1ccccc1-c1ncc(-c2ccccc2)o1`, the IC50 at Protein skinhead-1 was 37.3 µM (active).
Turning to `O=C(NC1CCCC1)C(c1ccc(F)cc1)N(Cc1ccc(F)cc1)C(=O)CCl` (centres undefined), the half-maximal activity concentration (AC50) in [2] is 4.67 µM (active). The EC50 at Protein RecA was 0.557 µM (active).
The matching figures for `COc1ccc(-n2c(=O)c3ccccc3c3ccccc3c2=O)cc1`: 10.1 µM (active) and 23.3 µM (active).
The matching figures for `Cc1[nH]n(C)c(=O)c1C(=O)c1c(-c2ccccc2Cl)noc1C`: 6.51 µM (active) and 2.61 µM (active).
Turning to `CC1CCc2c(sc3nc(CSc4nc[nH]n4)nc(O)c23)C1` (centres undefined), the CC50 in [1] was 24.2 µM (active).
Take `O=C(Nc1ccc(S(=O)(=O)N2CCCCC2)cc1)C1CC(=O)N(c2ccc(Cl)cc2)C1` (centres undefined): the half-maximal cytotoxic concentration (CC50) in experiment [1] was 19.9 µM (active).
On to `Cc1ccc(NC2=NC(=O)/C(=C\c3ccc(C)s3)S2)cc1`, for which, on Protein skinhead-1, the IC50 was > 100 µM (inactive).
On the same count and under the same terms, for `C=CCC1CCCCC1=C(C#N)c1ccccc1` (centres undefined) the value was > 100 µM (inactive).
Take `CC1(c2ccccc2)ON(c2ccccc2C(F)(F)F)C1=O` (centres undefined): the 50% cytotoxic concentration (CC50) in [1] is 49.9 µM (active).
Consider `C[C@@H]1CC=C[C@H]2[C@H]1C(=O)N(Cc1ccccc1)[C@H]2c1ccc(C(F)(F)F)cc1`, for which the AC50 in experiment [2] is 22.3 µM (active). At Protein RecA, the EC50 was 87 µM (active).
As to `Cc1ccc(OCCn2cc(C#N)c3ccccc32)cc1`, the CC50 in experiment [1] was 28.8 µM (active).
For `O=C(c1ccncc1)N1CCC2(CC1)CN(c1ncccn1)C2`, the AC50 on Cytochrome P450 2D6 was 20 µM (inconclusive); at Cytochrome P450 1A2, 6.31 µM (inconclusive).
Take `O=C(CCN1C(=O)/C(=C/c2cccs2)SC1=S)Nc1cccc(O)c1`: the AC50 in [2] was 1.64 µM (active). Also, on Protein RecA, the EC50 was 125 µM (active).
With `O=C(Nc1ccc2ccccc2c1)c1ccc(NS(=O)(=O)c2ccc(Br)s2)cc1`, the CC50 in [1] was > 50 µM (active). Further, the EC50 was 2 µM (active) in experiment [3], > 150 µM (not active) on Streptokinase A and 5.03 µM (active) in the experiment with Streptococcus.
As to `Cc1c(C(C)(C)O)[nH]c2ccc(C(F)(F)F)cc12`, the CC50 in [1] was 33.8 µM (active).
With `O=c1cc(C2CCNCC2)[nH][nH]1`, the AC50 in [2] was 3.73 µM (active). At Protein RecA, the EC50 is 1.41 µM (active).
Consider `CC(=O)C(C)Oc1ccc2c3c(c(=O)oc2c1)CCCC3` (centres undefined), for which the CC50 in experiment [1] is 31.8 µM (active).
On the same count and under the same terms, for `Cc1ccc2sc3ccc(NC(=O)c4ccccc4Cl)cc3c(=O)c2c1` the value was 15.9 µM (active).
Regarding `Cc1n[nH]c2c1C(CCc1ccccc1)C(C#N)=C(N)O2` (centres undefined), the AC50 in [2] is 24.9 µM (active). In addition, at Protein RecA, the concentration giving a half-maximal response (EC50) was 6.58 µM (active).
Turning to `Cc1ccccc1C1CCCN(C(=O)c2cc(COc3c(F)cccc3F)on2)C1` (centres undefined), in [1], the CC50 was 21.6 µM (active).
